Values of other authors as cited in US8097259B2, “Method for prevention and treatment of Alzheimer's disease” (SunWay Biotech Co., Ltd., priority 2007, dated 2012).

Test system: Alzheimer's disease
Settings: Wolozin et al. 2000

## CC[C@H](C)C(=O)O[C@H]1C[C@@H](C)C=C2C=C[C@H](C)[C@H](CC[C@@H]3C[C@@H](O)CC(=O)O3)[C@H]21 [lovastatin]
  results for AD treatment among statins: best results
